Data on twelve molecules can be found in patent US7902361B2, “Pyrimidin-4-yl-3, 4-thione compounds and their use in therapy” (Cyclacel Limited, priority 2003, dated 2011).

The target of one data set is CDK1/cyclin B (Homo sapiens, UniProt P06493). Description: Kinase assay CDK1/cyclin B (radioactive phosphate incorporation). In kind it is biochemical. Particulars: Ki calculated (Cheng-Prusoff) from experimentally determined IC50 and Km,ATP; read-out: Kinase Inhibition Ki CDK1 - cyclin B. In outline:
(§1)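 Radiometric assays measured transfer of radioactive phosphate from ATP onto polypeptide substrates, using 2-4 μg recombinant active enzyme in buffer typically containing 25 mM β-glycerophosphate, 20 mM MOPS, 5 mM EGTA, 1 mM DTT and 1 mM Na3VO3 at pH 7.4. Reactions were stopped on ice, filtered on P81 or GF/C plates and washed with orthophosphoric acid. Incorporated radioactivity was scintillation-counted.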

A further data set concerns the target CDK2/cyclin E (Homo sapiens, UniProt P24941). The experiment in a line: Kinase assay CDK2/cyclin E. Type of data set: biochemical. The following applies: Ki calculated (Cheng-Prusoff) from experimentally determined IC50 and Km,ATP; read-out: Kinase Inhibition Ki CDK2 - cyclin E. The gist of the method: as §1
The target of the next data set is CDK2/cyclin A (Homo sapiens, UniProt P24941). Description: Kinase assay CDK2/cyclin A. Type of data set: biochemical. The following applies: Ki calculated (Cheng-Prusoff) from experimentally determined IC50 and Km,ATP; read-out: Kinase Inhibition Ki CDK2 - cyclin A. In outline:
as §1

The next data set addresses CDK4/cyclin D1 (Homo sapiens, UniProt P11802). Description: Kinase assay CDK4/cyclin D1. Particulars: Ki calculated (Cheng-Prusoff) from experimentally determined IC50 and Km,ATP; read-out: Kinase Inhibition Ki CDK4 - cyclin D1. Type of data set: biochemical. In outline: (§2)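 Radiometric filter assays used recombinant kinases or complexes (2-4 μg) with appropriate polypeptide substrates in pH 7.4 β-glycerophosphate/MOPS buffer. Reactions were started with 15 mM MgCl2 and 100 μM ATP containing [γ-32P]-ATP and run at 30° C. Phosphate incorporated into substrate was counted by scintillation after washing.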

In the next data set the target is CDK7/cyclin H (Homo sapiens, UniProt P50613). Description: Kinase assay CDK7/cyclin H. Type of data set: biochemical. The following applies: Ki calculated (Cheng-Prusoff) from experimentally determined IC50 and Km,ATP; read-out: Kinase Inhibition Ki CDK7 - cyclin H. In outline:
as §2

In the next data set the target is CDK9/cyclin T1 (Homo sapiens, UniProt P50750). The experiment in a line: Kinase assay CDK9/cyclin T1. In kind it is biochemical. The following applies: Ki calculated (Cheng-Prusoff) from experimentally determined IC50 and Km,ATP; read-out: Kinase Inhibition Ki CDK9 - cyclin T1. The gist of the method:
as §2

For a further data set, the target named is T1, aurora A (Homo sapiens, UniProt O14965).
T1 sequence (O14965 1-403): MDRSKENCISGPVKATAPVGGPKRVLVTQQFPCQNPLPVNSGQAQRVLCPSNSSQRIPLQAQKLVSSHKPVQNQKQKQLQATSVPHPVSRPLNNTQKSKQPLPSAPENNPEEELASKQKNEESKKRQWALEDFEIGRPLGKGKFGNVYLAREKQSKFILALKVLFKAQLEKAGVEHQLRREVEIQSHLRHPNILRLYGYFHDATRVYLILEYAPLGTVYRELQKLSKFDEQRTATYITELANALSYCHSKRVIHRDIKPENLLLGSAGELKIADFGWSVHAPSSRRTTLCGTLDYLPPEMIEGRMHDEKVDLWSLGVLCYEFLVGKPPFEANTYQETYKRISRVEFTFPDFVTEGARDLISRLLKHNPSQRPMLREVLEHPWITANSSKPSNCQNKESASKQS
The experiment in a line: Kinase assay aurora A. In kind it is biochemical. The following applies: Ki calculated (Cheng-Prusoff) from experimentally determined IC50 and Km,ATP; read-out: Kinase Inhibition Ki Aurora A. The procedure: The compounds from the examples above were investigated for their ability to inhibit the enzymatic activity of various protein kinases. This was achieved by measurement of incorporation of radioactive phosphate from ATP into appropriate polypeptide substrates. Recombinant protein kinases and kinase complexes were produced or obtained commercially. Assays were performed using 96-well plates and appropriate assay buffers (typically 25 mM β-glycerophosphate, 20 mM MOPS, 5 mM EGTA, 1 mM DTT, 1 mM […], pH 7.4), into which were added 2-4 μg of active enzyme with appropriate substrates. […] Reactions were stopped on ice, followed by filtration through p81 filterplates or GF/C filterplates (Whatman Polyfiltronics, Kent, UK). After washing 3 times with 75 mM aq orthophosphoric acid, plates were dried, scintillant added and incorporated radioactivity measured in a scintillation counter (TopCount, Packard Instruments, Pangbourne, Berks, UK). Compounds for kinase assay were made up as 10 mM stocks in DMSO and diluted into 10% DMSO in assay buffer.

The target of a further data set is T2, GSK3β (Homo sapiens, UniProt P49841).
T2 construct: purchased New England Biolabs
T2 sequence (P49841 whole entry): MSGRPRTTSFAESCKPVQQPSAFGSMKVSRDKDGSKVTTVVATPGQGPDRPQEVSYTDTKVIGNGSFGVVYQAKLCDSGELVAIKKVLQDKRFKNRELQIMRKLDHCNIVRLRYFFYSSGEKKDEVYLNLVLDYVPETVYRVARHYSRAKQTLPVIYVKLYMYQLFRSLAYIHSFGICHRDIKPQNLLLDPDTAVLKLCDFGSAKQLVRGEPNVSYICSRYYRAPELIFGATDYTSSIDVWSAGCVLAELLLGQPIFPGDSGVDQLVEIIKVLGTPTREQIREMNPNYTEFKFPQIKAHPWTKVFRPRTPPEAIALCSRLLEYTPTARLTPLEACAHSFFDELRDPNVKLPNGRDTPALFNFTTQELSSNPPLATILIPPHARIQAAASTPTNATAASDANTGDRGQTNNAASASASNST
The experiment in a line: GSK3β in vitro kinase assay. Type of data set: biochemical. The following applies: recombinant human GSK3β, 100 μM ATP. The procedure:
Both isoforms of GSK3 (α and β) are involved in the regulation of glycogen synthase activity—key enzyme in the glycogen metabolism.
A 10-point titration was set up to determine the IC50 values of selected example compounds against GSK3β. Assays were performed using 96-well microtiter plates with a final volume of 25 μL per well. Each assay contained 1.5 units of GSK3β(New England Biolabs), 200 μM CREB phosphopeptide ([…]pSYR, Alta Biosciences), 20 mM Tris HCl pH7.5, 5 mM DTT, 15 mM MgCl2 supplemented with 100 μM ATP and 0.5 μCi of [γ-^32P] ATP plus or minus inhibitor in 2% DMSO. Assays were carried out for 30 minutes at 30° C. before stopping the reaction by the addition of an equal volume of 75 mM aqueous phosphoric acid. Samples were then spotted onto a p81 filterplate (Whatman) and a vacuum was applied. Wells were washed 3 times with 200 μL of dilute aqueous phosphoric acid before the addition of 50 μL Microscint 40 per well. Incorporation of radioactivity was determined on a Topcount microplate scintillation counter (Packard).

Another data set has as its system HIV-1. Particulars: HIV-1 in human PBMCs, seven days following infection.

Sequence of CDK1/cyclin B (P06493 whole entry, species assumed): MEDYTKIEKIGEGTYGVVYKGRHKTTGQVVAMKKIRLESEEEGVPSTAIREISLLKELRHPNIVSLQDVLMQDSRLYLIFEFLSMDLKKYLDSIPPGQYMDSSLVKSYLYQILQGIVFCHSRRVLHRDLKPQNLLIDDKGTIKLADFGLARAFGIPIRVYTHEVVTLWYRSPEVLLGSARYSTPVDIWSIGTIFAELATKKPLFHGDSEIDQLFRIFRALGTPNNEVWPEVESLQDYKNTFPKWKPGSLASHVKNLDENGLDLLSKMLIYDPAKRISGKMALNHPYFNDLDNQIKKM
Sequence of CDK1/cyclin B (P14635 whole entry partner, species assumed): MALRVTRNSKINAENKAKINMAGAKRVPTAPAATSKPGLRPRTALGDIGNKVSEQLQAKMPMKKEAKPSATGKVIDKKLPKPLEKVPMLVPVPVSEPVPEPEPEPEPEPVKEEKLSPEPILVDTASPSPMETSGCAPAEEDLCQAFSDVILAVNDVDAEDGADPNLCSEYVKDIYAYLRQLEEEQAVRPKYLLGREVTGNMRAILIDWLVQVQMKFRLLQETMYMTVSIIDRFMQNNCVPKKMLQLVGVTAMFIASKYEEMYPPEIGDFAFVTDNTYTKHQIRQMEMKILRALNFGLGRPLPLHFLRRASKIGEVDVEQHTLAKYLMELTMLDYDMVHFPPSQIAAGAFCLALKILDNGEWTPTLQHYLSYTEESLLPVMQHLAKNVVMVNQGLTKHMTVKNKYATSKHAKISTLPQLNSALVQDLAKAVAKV
Sequence of CDK9/cyclin T1 (P50750 whole entry, species assumed): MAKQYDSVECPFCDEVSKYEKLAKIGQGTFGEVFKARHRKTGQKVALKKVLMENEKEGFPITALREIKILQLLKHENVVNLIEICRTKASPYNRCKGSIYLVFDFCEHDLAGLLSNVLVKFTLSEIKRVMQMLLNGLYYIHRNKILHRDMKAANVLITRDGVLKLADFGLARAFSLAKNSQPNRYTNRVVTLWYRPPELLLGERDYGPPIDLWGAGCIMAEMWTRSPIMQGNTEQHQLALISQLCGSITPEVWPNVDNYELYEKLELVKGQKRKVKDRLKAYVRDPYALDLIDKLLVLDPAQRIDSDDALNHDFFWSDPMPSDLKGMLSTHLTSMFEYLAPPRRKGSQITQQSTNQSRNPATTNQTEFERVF
Sequence of CDK9/cyclin T1 (O60563 whole entry partner, species assumed): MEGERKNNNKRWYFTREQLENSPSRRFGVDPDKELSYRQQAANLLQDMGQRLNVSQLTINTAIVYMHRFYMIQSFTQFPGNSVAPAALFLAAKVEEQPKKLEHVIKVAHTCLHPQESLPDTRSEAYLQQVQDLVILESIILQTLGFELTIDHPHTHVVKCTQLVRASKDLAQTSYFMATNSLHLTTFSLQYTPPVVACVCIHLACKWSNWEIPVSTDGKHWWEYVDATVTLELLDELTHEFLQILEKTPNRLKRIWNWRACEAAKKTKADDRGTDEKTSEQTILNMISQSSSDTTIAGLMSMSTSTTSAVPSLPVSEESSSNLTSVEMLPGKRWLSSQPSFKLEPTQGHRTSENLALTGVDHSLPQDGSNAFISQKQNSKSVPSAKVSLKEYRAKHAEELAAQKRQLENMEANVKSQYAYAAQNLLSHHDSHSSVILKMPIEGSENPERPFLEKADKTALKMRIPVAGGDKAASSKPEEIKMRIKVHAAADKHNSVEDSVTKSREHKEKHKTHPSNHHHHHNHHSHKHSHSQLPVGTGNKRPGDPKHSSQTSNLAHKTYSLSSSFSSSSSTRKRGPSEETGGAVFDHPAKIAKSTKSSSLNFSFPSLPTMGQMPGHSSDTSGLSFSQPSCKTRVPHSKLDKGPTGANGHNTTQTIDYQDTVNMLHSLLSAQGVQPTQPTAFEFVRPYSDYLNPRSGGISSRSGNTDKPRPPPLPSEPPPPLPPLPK
Sequence of CDK4/cyclin D1 (P11802 whole entry, species assumed): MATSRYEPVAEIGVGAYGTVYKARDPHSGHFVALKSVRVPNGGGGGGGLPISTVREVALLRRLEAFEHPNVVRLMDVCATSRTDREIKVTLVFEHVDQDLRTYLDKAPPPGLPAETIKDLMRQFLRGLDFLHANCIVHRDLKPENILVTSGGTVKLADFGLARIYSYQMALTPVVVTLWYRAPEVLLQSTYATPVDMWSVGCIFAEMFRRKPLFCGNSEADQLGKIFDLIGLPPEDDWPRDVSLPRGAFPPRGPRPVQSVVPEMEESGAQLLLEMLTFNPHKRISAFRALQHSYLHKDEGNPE
Sequence of CDK4/cyclin D1 (P24385 whole entry partner, species assumed): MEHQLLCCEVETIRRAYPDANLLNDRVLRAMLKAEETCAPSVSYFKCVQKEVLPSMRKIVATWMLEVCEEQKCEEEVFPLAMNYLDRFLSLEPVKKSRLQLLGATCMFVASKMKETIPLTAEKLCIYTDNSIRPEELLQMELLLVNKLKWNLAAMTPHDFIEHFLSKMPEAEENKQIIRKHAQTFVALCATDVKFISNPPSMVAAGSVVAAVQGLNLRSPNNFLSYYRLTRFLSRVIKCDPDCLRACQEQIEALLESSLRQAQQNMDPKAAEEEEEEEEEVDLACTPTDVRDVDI
Sequence of CDK7/cyclin H (P50613 whole entry, species assumed): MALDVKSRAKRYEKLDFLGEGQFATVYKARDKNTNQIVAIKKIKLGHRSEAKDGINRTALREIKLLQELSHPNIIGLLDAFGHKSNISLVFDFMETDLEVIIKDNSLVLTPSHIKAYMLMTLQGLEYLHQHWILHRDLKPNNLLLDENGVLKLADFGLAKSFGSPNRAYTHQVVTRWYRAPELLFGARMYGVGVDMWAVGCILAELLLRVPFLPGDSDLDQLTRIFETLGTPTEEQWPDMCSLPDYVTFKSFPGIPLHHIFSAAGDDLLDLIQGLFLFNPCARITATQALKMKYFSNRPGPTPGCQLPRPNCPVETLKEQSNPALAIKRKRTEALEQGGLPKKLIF
Sequence of CDK7/cyclin H (P51946 whole entry partner, species assumed): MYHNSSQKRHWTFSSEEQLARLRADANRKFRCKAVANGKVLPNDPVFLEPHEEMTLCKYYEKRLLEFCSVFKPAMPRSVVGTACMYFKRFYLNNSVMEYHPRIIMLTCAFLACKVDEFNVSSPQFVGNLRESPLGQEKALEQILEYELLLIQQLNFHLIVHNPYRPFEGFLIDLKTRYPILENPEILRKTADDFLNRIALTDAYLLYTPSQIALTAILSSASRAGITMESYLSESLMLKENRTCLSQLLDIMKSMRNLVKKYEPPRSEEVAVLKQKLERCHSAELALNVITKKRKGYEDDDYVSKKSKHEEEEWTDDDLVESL
Procedure for HIV-1: Representative compounds of the present invention were tested for antiviral activity against HIV-1 in human peripheral blood mononuclear cells (PBMCs) using the clinical paediatric HIV strains RoJo or WeJo. PBMCs were cultured under conditions which promote cell survival and HIV replication.
Fresh PBMCs, seronegative for HIV and HBV, were isolated from screened donors (Interstate Blood Bank, Inc. Memphis, Tenn.). Cells were pelleted/washed 2-3 times by low speed centrifugation and re-suspension in PBS to remove contaminating platelets. […] Banded PBMCs were gently aspirated from the resulting interface and subsequently washed with PBS by low speed centrifugation. […] The cells were allowed to incubate at 37° C. […] IL-2 is included in the culture medium to maintain the cell division initiated by the PHA mitogenic stimulation. PBMCs were maintained in this with bi-weekly medium changes until used in the assay protocol. Cells were kept in culture for a maximum of two weeks before being deemed too old for use in assays and discarded. Monocytes were depleted from the culture as the result of adherence to the tissue culture flask.
For the standard PBMC assay, PHA-P stimulated cells from at least two normal donors were pooled, diluted and plated in the interior wells of a 96-well round bottom microplate. Pooling of mononuclear cells from more than one donor was used to minimise the variability observed between individual donors, which results from quantitative and qualitative differences in HIV infection and overall response to the PHA and IL-2 of primary lymphocyte populations. Each plate contained virus/cell control wells (cells plus virus), experimental wells (drug plus cells plus virus) and compound control wells (drug plus media without cells, necessary for MTS monitoring of cytotoxicity). Since HIV-1 is not cytopathic to PBMCs, this allows the use of the same assay plate for both antiviral activity and cytotoxicity measurements. Test drug dilutions were prepared in microtiter tubes and each concentration was placed in appropriate wells using the standard format. A predetermined dilution of virus stock was placed in each test well (final MOI≅0.1). The PBMC cultures were maintained for seven days following infection at 37° C., 5% CO2 After this period, cell-free supernatant samples were collected for analysis of reverse transcriptase activity and/or HIV p24 content. Following removal of supernatant samples, compound cytotoxicity was measured by addition of MTS to the plates for determination of cell viability. Wells were also examined microscopically and any abnormalities were noted.
Tritiated thymidine triphosphate (^3H-TTP, 80 Ci/mmol, NEN) was received in 1:1 dH2O:Ethanol at 1 mCi/mL. Poly rA:oligo dT template:primer (Pharmacia) was prepared as a stock solution, followed by aliquoting and storage at −20° C. The RT reaction buffer was prepared fresh on a daily basis. The final reaction mixture was prepared by combining ^3H-TTP, dH2O, poly rA:oligo dT stock and reaction buffer. This reaction mixture was placed in a round bottom microtiter plate and supernatant containing virus was added and mixed. The plate was incubated at 37° C. for 60 minutes. Following incubation, the reaction volume was spotted onto DE81 filter-mats (Wallac), in a sodium phosphate buffer or 2×SSC (Life Technologies). Next they were washed in distilled water, in 70% ethanol, and then dried. Incorporated radioactivity (counts per minute, CPM) was quantified using standard liquid scintillation techniques.

Take `Cc1c(-c2ccnc(Nc3ccc(S(=O)(=O)NCCO)cc3)n2)sc(=O)n1C` [Compound 72, 4-[4-(3,4-Dimethyl-2-oxo-2,3-dihydro-thiazol-5-yl)-pyrimidin-2-ylamino]-N-(2-hydroxy-ethyl)-benzenesulfonamide]: the inhibition constant Ki at CDK1/cyclin B was 5.4 nM; on CDK2/cyclin E, 0.5 nM; on CDK2/cyclin A it was 2.9 nM; at CDK4/cyclin D1 it was 830 nM; at CDK7/cyclin H, 1200 nM; on CDK9/cyclin T1, 11 nM. The Ki at aurora A is 510 nM. Besides, at GSK3β, the IC50 is 8.3 nM.
Turning to `Cc1c(-c2ccnc(Nc3ccc(N4CCN(Cc5ccccc5)CC4)cc3)n2)sc(=O)n1C` [Compound 69, 5-{2-[4-(4-Benzyl-piperazin-1-yl)-phenylamino]-pyrimidin-4-yl}-3,4-dimethyl-3H-thiazol-2-one], the Ki at CDK1/cyclin B is 1700 nM; on CDK2/cyclin E, 160 nM; on CDK2/cyclin A it was 950 nM; on CDK4/cyclin D1 it was 100 nM; on CDK7/cyclin H, 12 nM; on CDK9/cyclin T1 it was 21 nM. Further, the Ki at aurora A is 39 nM. For the same molecule, on GSK3β, the IC50 was 96 nM.
Turning to `Cc1c(-c2ccnc(Nc3cccc(C#N)c3)n2)sc(=O)n1C` [Compound 16, 3-[4-(3,4-Dimethyl-2-oxo-2,3-dihydro-thiazol-5-yl)-pyrimidin-2-ylamino]-benzonitrile], the Ki was 400 nM on CDK1/cyclin B; 0.5 nM at CDK2/cyclin E; 42 nM on CDK2/cyclin A; 100 nM at CDK4/cyclin D1; 6.8 nM on CDK7/cyclin H; 1.9 nM at CDK9/cyclin T1. Also, in the data set with HIV-1, the “anti-HIV activity based on TI (therapeutic index: TC50/IC50)” value is given as “Active”.
As for `Cc1cc(Nc2nccc(-c3sc(=O)n(C)c3C)n2)ccc1Cl` [Compound 15, 5-[2-(4-Chloro-3-methyl-phenylamino)-pyrimidin-4-yl]-3,4-dimethyl-3H-thiazol-2-one], the Ki at CDK1/cyclin B is 600 nM; on CDK2/cyclin E, 580 nM; on CDK2/cyclin A, 460 nM; at CDK4/cyclin D1 it was 9600 nM; on CDK9/cyclin T1 it was 45 nM. Further, the “anti-HIV activity based on TI (therapeutic index: TC50/IC50)” value in the data set on HIV-1 is recorded as “Active”.
For `CCn1c(C)c(-c2ccnc(Nc3ccc(C)c(O)c3)n2)sc1=O` [Compound 47, 3-Ethyl-5-[2-(3-hydroxy-4-methyl-phenylamino)-pyrimidin-4-yl]-4-methyl-3H-thiazol-2-one], the Ki on CDK1/cyclin B is 180 nM; at CDK2/cyclin E, 15 nM; on CDK2/cyclin A it was 87 nM; at CDK4/cyclin D1, 1800 nM; on CDK7/cyclin H, 17 nM; at CDK9/cyclin T1, 3 nM. For the same molecule, on aurora A, the Ki was 53 nM. Also, the IC50 on GSK3β came out at 30.8 nM.
Turning to `Cc1ccc(Nc2nccc(-c3sc(=O)n(C)c3C)n2)cc1C(F)(F)F` [Compound 21, 3,4-Dimethyl-5-[2-(4-methyl-3-trifluoromethyl-phenylamino)-pyrimidin-4-yl]-3H-thiazol-2-one], the Ki on CDK1/cyclin B was 2300 nM; at CDK2/cyclin E, 190 nM; at CDK2/cyclin A it was 550 nM; on CDK7/cyclin H, 220 nM; at CDK9/cyclin T1, 170 nM. For the same molecule, the “anti-HIV activity based on TI (therapeutic index: TC50/IC50)” value in the data set on HIV-1 is “Active”.
For the molecule `Cc1c(-c2ccnc(Nc3cccc(CNS(=O)(=O)C(F)(F)F)c3)n2)sc(=O)n1C` [Compound 58, N-{3-[4-(3,4-Dimethyl-2-oxo-2,3-dihydro-thiazol-5-yl)-pyrimidin-2-ylamino]-benzyl}-C,C,C-trifluoro-methanesulfonamide], the Ki on CDK1/cyclin B was 1100 nM; on CDK2/cyclin E, 100 nM; at CDK2/cyclin A, 600 nM; at CDK4/cyclin D1 it was 5100 nM; on CDK7/cyclin H, 96 nM; at CDK9/cyclin T1 it was 6.4 nM. Further, the Ki on aurora A is 840 nM. Besides, on GSK3β, the IC50 amounted to 23.3 nM.
As for `Cc1c(-c2ccnc(Nc3cccc(CNS(C)(=O)=O)c3)n2)sc(=O)n1C` [Compound 55, N-{3-[4-(3,4-Dimethyl-2-oxo-2,3-dihydro-thiazol-5-yl)-pyrimidin-2-ylamino]-benzyl}-methane-sulfonamide], the Ki on CDK1/cyclin B was 160 nM; at CDK2/cyclin E, 39 nM; at CDK2/cyclin A, 42 nM; at CDK4/cyclin D1, 110 nM; on CDK7/cyclin H it was 110 nM; at CDK9/cyclin T1 it was 2.2 nM. On aurora A, the Ki was 46 nM. The IC50 at GSK3β came to 82 nM.
Take `CC(=O)N1CCN(c2cccc(Nc3nccc(-c4sc(=O)n(C)c4C)n3)c2)CC1` [Compound 49, 5-{2-[3-(4-Acetyl-piperazin-1-yl)-phenylamino]-pyrimidin-4-yl}-3,4-dimethyl-3H-thiazol-2-one]: the Ki is 930 nM at CDK1/cyclin B; 1300 nM on CDK2/cyclin E; 3000 nM on CDK2/cyclin A; 9.7 nM on CDK4/cyclin D1; 1100 nM at CDK7/cyclin H; 30 nM on CDK9/cyclin T1. Besides, the Ki on aurora A was 110 nM. Besides, the IC50 at GSK3β stood at 380 nM.
Regarding `Cc1c(-c2ccnc(Nc3ccc(N4CCNCC4)c(Cl)c3)n2)sc(=O)n1C` [Compound 44, 5-[2-(3-Chloro-4-piperazin-1-yl-phenylamino)-pyrimidin-4-yl]-3,4-dimethyl-3H-thiazol-2-one], the Ki is 86 nM at CDK1/cyclin B; 62 nM on CDK2/cyclin E; 99 nM at CDK2/cyclin A; 36 nM at CDK4/cyclin D1; 19 nM on CDK7/cyclin H; 3.4 nM on CDK9/cyclin T1. The Ki on aurora A was 38 nM. The IC50 on GSK3β came to 17.8 nM.
Turning to `CCn1c(C)c(-c2ccnc(Nc3ccc(F)cc3)n2)sc1=O` [Compound 45, 3-Ethyl-5-[2-(4-fluoro-phenylamino)-pyrimidin-4-yl]-4-methyl-3H-thiazol-2-one], the Ki at CDK1/cyclin B was 300 nM; on CDK2/cyclin E, 24 nM; at CDK2/cyclin A, 52 nM; on CDK4/cyclin D1, 5000 nM; on CDK7/cyclin H, 220 nM; on CDK9/cyclin T1 it was 11 nM. The Ki at aurora A was 43 nM. At GSK3β, the IC50 turned out to be 15.2 nM.
For `Cc1c(-c2ccnc(Nc3cccc(CNC(=O)c4ccccc4)c3)n2)sc(=O)n1C` [Compound 57, N-{3-[4-(3,4-Dimethyl-2-oxo-2,3-dihydro-thiazol-5-yl)-pyrimidin-2-ylamino]-benzyl}-benzamide], the Ki at CDK1/cyclin B was 360 nM; on CDK2/cyclin E, 52 nM; on CDK2/cyclin A, 540 nM; on CDK4/cyclin D1, 21 nM; at CDK7/cyclin H, 1300 nM; at CDK9/cyclin T1, 1.6 nM. The Ki at aurora A was 160 nM. Further, the IC50 at GSK3β was found to be 17.8 nM.
